Data: US6946456B2, “Methods for treating cell proliferative disorders and viral infections” (Sloan-Kettering Institute for Cancer Research, priority 2000, dated 2005)
Entries after “also recorded” stand apart in the source; their conditions may differ.

Key:
[1] = tested on: Rb-wild type cells (MCF7 and Colo 205); experiment: Cell cycle analysis by flow cytometry of ethidium bromide-stained nuclei, Rb-wild type tumor cell lines; type: cell-based, human; conditions: for cell cycle effect in tumor cell lines: 12 tumor cell lines examined, FIG. 1A
Procedure: (§1) The human breast cancer cell lines MB-MDA 468, MCF7 and BT-549 and the colon carcinoma cell line, Colo 205, were obtained from ATCC. Breast cell lines were maintained in DME-F12 media and Colo 205 cells in RPMI; both media were supplemented with 5% fetal calf serum (BRL), 2 mM glutamine and 50 u/ml each of penicillin and streptomycin. All cells were incubated at 37° C. in 5% C02. Cells were treated for 24 hours with 250 ng/ml herbimycin A (Gibco) dissolved in DMSO or 435 nM of radicicol (Sigma). After treatment the […] and analyzed by flow cytometry. Nuclei were isolated for flow cytometry assays stained with ethidium bromide and analyzed using a Becton Dickinson fluorescence-activated cell sorter. Statistical data was obtained using Multicycle program software.

[2] = tested on: tumor cell lines with mutated Rb (MB-MDA 468, BT-549, DU145 and DU4475); experiment: Cell cycle analysis by flow cytometry of ethidium bromide-stained nuclei, tumor cell lines with mutated Rb; type: cell-based, human
Procedure: as §1

MB-MDA 468 cells [3] = experiment: Mitotic index by bisbenzimide staining; type: cell-based, human
Procedure: For mitotic indices, cells were typsinized, washed with PBS and fixed with 3% paraformaidehyde in PBS for 20 min. Cells were then stained with 3 μg/ml bisbenzimide (Hoechst 33258; Sigma) for 15 min and examined under fluorescence microscopy. Mitosis was scored by the presence of condensed chromosomes.

MB-MDA 468 cells [4] = experiment: Immunofluorescent analysis (bisbenzimide, anti-α-tubulin, ACA/CREST); type: cell-based, human
Procedure: For immunofluorescent analysis, harvested cells were washed with PBS, fixed with methanol for 20 min at −20° C., washed again and blocked for 30 min with 2% BSA in PBS. Cells were then stained with anti-α-tubulin (Sigma) and anti-centromere protein antibodies (ACA/CREST) (gift of Dr. J. D. Rattner) in 2% BSA PBS for 1 hour. Following 3 washes with 0.5% BSA in PBS, cells were incubated with anti-human FITC conjugated, antimouse rhodamine conjugated antibodies (Molecular Probes) and 2 μg/ml bisbenzimide in 2% BSA in PBS for 45 min. Cells were then washed 4× with 0.5% BSA in PBS, resuspended in PBS and images captured by confocal microscopy or with a CCD camera. Images were then processed using Slidebook 3.0 and Adobe Photoshop program software.

[5] = tested on: cyclin B1-associated kinase activity; experiment: Immunoprecipitation and in vitro kinase assay (histone H1), cyclin B1; type: cell-based, human; conditions: MB-MDA 468, loosely adherent mitotically arrested cells
Procedure: (§2) Levels of mitotic cyclin expression and associated kinase activities in herbimycin arrested MB-MD468 cells were assessed using immunoblot analysis and in vitro kinase assays as described below. Cells cultured with herbimycin were enriched for mitotically arrested cells by using only the loosely adherent population in which the mitotic index was greater than 90%.
(§3) For immunoprecipitation, 100 μg of total protein was incubated with anticyclin A or anti-cyclin B1 (Santa Cruz) antibodies for 2 hours at 4° C. and then for 1 hour following the addition of protein A-Sephaliose. The immune complexes were washed 4× with lysis buffer and boiled in SDS-PAGE sample buffer for 5 min. Following SDS-PAGE, proteins were transferred onto Immobilon and analyzed by western blotting.
(§4) For in vitro kinase reactions, immune complexes were washed 4× with lysis buffer, 2× with kinase buffer (20 mM Tris pH 7.4, 7.5 mM MgCl2, 1 mM DTT) and incubated in 40 μl of kinase buffer containing 2 μg histone H1, 10 μCi [γ-^32P] ATP and 300 μM ATP for 10 min at 37° C. The reaction was stopped by the addition of SDS-PAGE sample buffer and boiled for 5 min. Proteins were resolved on SDS-PAGE, transferred onto Immobilon and exposed to autoradiography film or phosphoimager screen. Kinase activity was quantitated by FUJIX phosphoimager and MacBAS program software.

[6] = tested on: cyclin A-associated kinase activity; experiment: Immunoprecipitation and in vitro kinase assay (histone H1), cyclin A; type: cell-based, human; conditions: MB-MDA 468, arrested cells compared to control cells
Procedure: as §2, §3, §4

[7] = tested on: cyclin B1 protein expression; experiment: Immunoblot analysis of cyclin B1 expression; type: cell-based, human; conditions: MB-MDA 468, compared to control
Procedure: as §2
(§5) Immunoblot analysis of lysates from cells treated with DMSO, nocodazole or herbimycin were analyzed by Western blot analysis using anti-cyclin A or anti-B1 antibodies. Treated cells were harvested, washed with PBS and lysed in NP40 lysis buffer (50 mM Tris pH7.4, 1% NP40,150 mM NaCl, 40 mM NaF. 1 mM Na3VO4, 1 mM phenylmethylsulfonlylfluoride, and 10 μg/ml. each of leupeptin, aprotinin and soybean trypsin inhibitor) for 30 min on ice. Lysates were centrifuged at 15,000×g for 10 min and protein concentration determined by bicinchoninic acid protein assay (Pierce). Equal amounts of total protein were resolved by SDS-PAGE and transferred onto Immobilon PVDF membranes (Millipore) by electroblotting. Blots were blocked overnight in 5% nonfat milk in TBS-T (0.1% Tween-20 TBS, 10 mM Tris pH 7.4, 150 mM NaCl) at 4° C. and subsequently probed with either anti-cyclin A or cyclin B1 antibodies (Santa Cruz Biotechnology). Following incubation with HRP-conjugated secondary antibodies, proteins were detected by chemiluminescence (Amersham).

cyclin A expression = experiment: Immunoblot analysis of cyclin A expression; type: cell-based, human; conditions: MB-MDA 468, arrested cells compared to control cells
Procedure: as §2, §5

[8] = tested on: Rb-wild type Colo 205 cells; experiment: Synchrony experiment: release from aphidicolin block, Colo 205; type: cell-based, human; conditions: released into drug
Procedure: (§6) Nuclei were isolated for flow cytometry assays stained with ethidium bromide and analyzed using a Becton Dickinson fluorescence-activated cell sorter. Statistical data was obtained using Multicycle program software.
(§7) For synchrony experiments, cells were treated with 1 μg/ml aphidicolin (Sigma) for 18 hours, washed and replated in media containing DMSO or HA.

[9] = tested on: Rb-negative MB-MDA 468 cells; experiment: Synchrony experiment: release from aphidicolin block, MB-MDA 468; type: cell-based, human; conditions: released into drug
Procedure: as §6, §7
(§8) To further confirm that the gene product of the Rb gene permits progression through mitosis in the presence of an HSP90 inhibitor, MB-MDA 468 cells were transfected with the plasmid pUHD1 0-3HGR containing full-length 4.7 kb human Rb cDNA. Rb transfectants were grown in DME-F12 media supplemented with 5% fetal calf serum (BRL), 2 mM glutamine and 50 μg/ml each of penicillin and streptomycin and 100 μg/ml hygromycin B (Boehringer Mannheim). To confirm the presence of the Rb gene product Western blot analysis was carried out using anti-Rb antibodies (Pharmingen) as described herein. Vector control, MB-MDA 468, and Rb transfected MB-MDA 468 cells were arrested with aphidicolin as described above. After release from aphidicolin arrest, transfected and non-transfected MM-MDA 468 cells were cultured in the presence of an ansamycin inhibitor as described in Example 1. Cell progression was monitored by flow cytometric analysis of ethidium bromide-stained nuclei as described above.

[10] = tested on: primary human foreskin keratinocytes (HFK); experiment: Cell cycle analysis in primary human foreskin keratinocytes; type: cell-based; conditions: 24 hours
Procedure: (§9) Primary human foreskin keratinocytes transfected with HPV-1 6 E6 and E7 were provided by Drs. H. Stöppler and R. Schlegel (Georgetown Univ.) and grown as previously described. Primary human foreskin keratinocytes or HPV 16 E6/E7 transfected human foreskin keratinoytes were treated with HA or DMSO for 24 hours and ethidium bromide stained-nuclei analyzed by flow cytometry as described above.

[11] = tested on: HPV 16 E6/E7 transfected human foreskin keratinocytes; experiment: Cell cycle analysis in HPV 16 E6/E7 transfected human foreskin keratinocytes; type: cell-based; conditions: 24 hours
Procedure: as §9

[12] = tested on: Rb transfected MB-MDA 468 cells (468-7 and 468-19); experiment: Cell cycle analysis in Rb transfected MB-MDA 468 cells; type: cell-based, human
Procedure: as §8

C=CCNC1=C2C[C@@H](C)C[C@H](OC)[C@H](O)[C@@H](C)/C=C(\C)[C@H](OC(N)=O)[C@@H](OC)/C=C\C=C(/C)C(=O)NC(=CC1=O)C2=O [17-AAG, 17-allylamino-(17)-demethoxygeldanamycin]
cell cycle effect in tumor cell lines [1]: growth arrest in G1 | cell cycle profiles and mitotic phenotype compared with HA ([2]; Rb-dependent): same Rb-dependent cell cycle profiles and mitotic phenotype as observed with HA

CO[C@H]1[C@@H](OC)C[C@H](C)[C@@H](OC)C2=CC(=O)C=C(NC(=O)/C(C)=C/C=C\[C@H](OC)[C@@H](OC(N)=O)/C(C)=C/[C@@H]1C)C2=O [HA, herbimycin A]
cell cycle effect in tumor cell lines [1]: growth arrest in G1 | cell cycle effect in tumor cell lines with mutated Rb ([2]; MB-MDA 468, BT-549, DU145 and DU4475, 250 ng/ml, 24 hours, FIG. 1B): accumulation of cells with 4n DNA content | cell cycle effect in control transfectants ([2]; control transfectants (MB-MDA 468 cells)): accumulated with 4n DNA content | mitotic index of the loosely adherent population (MB-MDA 468 cells [3]; MB-MDA 468, enriched for mitotically arrested cells): greater than 90% | mitotic index (cells in mitosis) (MB-MDA 468 cells [3]; MB-MDA 468 cells, treated population, control 5-10%): 60-70% | chromosomes localized to the poles scored as double dots for ACA staining (MB-MDA 468 cells [4]; 77 chromosomes localized to the poles): 87% | spindle formation (α-tubulin staining) (MB-MDA 468 cells [4]; arrested Rb-negative cells): arrested cells contained bipolar spindles | chromosomal distribution (bisbenzimide and ACA/CREST staining) (MB-MDA 468 cells [4]; arrested Rb-negative cells, in most cells): chromosomes localized both to the poles and within the spindle | cyclin B1-associated kinase activity, elevation compared to control [5]: 5 fold | cyclin A-associated kinase activity [6]: slightly lower | cyclin B1 protein expression [7]: increased | cyclin A expression (cyclin A expression): slightly lower | cell cycle progression after release from aphidicolin block [8]: complete mitosis; also recorded: progressed through G2 and mitosis and were arrested in the next G1 | time to arrest in the next mitosis after release from aphidicolin [9]: ≤ 12 h | cell cycle effect in primary HFK cells [10]: accumulate in G1 | cell cycle effect in E6/E7 transfectants [11]: arrested with 4n DNA content; also recorded: mitotic arrest and not G1 arrest | cell cycle effect in Rb-transfectants ([12]; clones 468-7 and 468-19, asynchronous): increase in G1 and had no effect on G2/M; also recorded: no effect on G2/M in the Rb-transfectants and instead caused an increase in G1 | cell cycle progression of Rb transfectants after release from aphidicolin block ([12]; clones 468-7 and 468-19, released into drug): cycled through mitosis and entered G1; also recorded: abrogates HA-induced mitotic arrest

C[C@@H]1C[C@H]2O[C@@H]2/C=C\C=C\C(=O)Cc2c(Cl)c(O)cc(O)c2C(=O)O1 [Radicicol]
cell cycle effect in Rb-positive cell lines ([1]; Colo205 and MCF7, 435 nM, 24 hours): induced G1 arrest | cell cycle effect in Rb-negative MDA-468 cells ([2]; MDA-468, 435 nM, 24 hours): accumulation of cells with 4n DNA content | chromosomal distribution in arrested MDA 468 cells (MB-MDA 468 cells [4]; MDA 468 cells, radicicol-arrested): chromosomes localized to the poles as well as strewn along the spindle

COC(=O)Nc1nc2ccc(C(=O)c3cccs3)cc2[nH]1 [nocodazole]
cyclin A-associated kinase activity [6]: slightly lower | cyclin A expression (cyclin A expression): slightly lower
